In the NIST ThermoML archive (doi:10.1021/acs.jced.5b00251):
± gives the expanded uncertainty stated by the source.

Assay: refractive index (other wavelength) (dimensionless); xn = mol fraction of the nth substance listed
Settings: 101 kPa, Liquid, Standard Abbe refractometry

c1ccc2c(c1)CCCC2 [1,2,3,4-tetrahydronaphthalene] + CCCCCCCCCCCC
refractive index
Settings | x1 = 0.1014 | x1 = 0.2024 | x1 = 0.3032 | x1 = 0.4036 | x1 = 0.5038 | x1 = 0.6036 | x1 = 0.7032 | x1 = 0.8024 | x1 = 0.9014
293.15 K, Wavelength=436.1 nm | 1.44127 ± 0.00073 | 1.45203 ± 0.00074 | 1.46314 ± 0.00079 | 1.47515 ± 0.00079 | 1.48812 ± 0.00078 | 1.50126 ± 0.00079 | 1.51481 ± 0.00082 | 1.52971 ± 0.00081 | 1.54558 ± 0.00078
293.15 K, Wavelength=513.9 nm | 1.43473 ± 0.00085 | 1.44489 ± 0.00081 | 1.45538 ± 0.00081 | 1.46671 ± 0.00085 | 1.47843 ± 0.00089 | 1.49106 ± 0.00088 | 1.50417 ± 0.00091 | 1.51804 ± 0.00092 | 1.53275 ± 0.001
293.15 K, Wavelength=589.3 nm | 1.43105 ± 0.00075 | 1.44086 ± 0.00075 | 1.45101 ± 0.00074 | 1.46197 ± 0.00077 | 1.47329 ± 0.00082 | 1.48552 ± 0.0008 | 1.49803 ± 0.00083 | 1.51156 ± 0.00079 | 1.52591 ± 0.0008
293.15 K, Wavelength=633.2 nm | 1.42949 ± 0.00072 | 1.43917 ± 0.00075 | 1.44918 ± 0.00075 | 1.45999 ± 0.00075 | 1.47113 ± 0.00078 | 1.48318 ± 0.00077 | 1.49553 ± 0.00077 | 1.50887 ± 0.00078 | 1.52288 ± 0.0008
293.15 K, Wavelength=657.2 nm | 1.42878 ± 0.0007 | 1.43896 ± 0.00075 | 1.44835 ± 0.00077 | 1.45921 ± 0.00078 | 1.47078 ± 0.00071 | 1.48194 ± 0.00079 | 1.4944 ± 0.00082 | 1.50801 ± 0.00082 | 1.52229 ± 0.00074
298.15 K, Wavelength=436.1 nm | 1.439 ± 0.00073 | 1.44978 ± 0.00074 | 1.46073 ± 0.00076 | 1.47277 ± 0.00074 | 1.48561 ± 0.00078 | 1.49875 ± 0.00077 | 1.51238 ± 0.00077 | 1.52724 ± 0.00078 | 1.54301 ± 0.00079
298.15 K, Wavelength=513.9 nm | 1.43249 ± 0.00073 | 1.44267 ± 0.00073 | 1.4533 ± 0.00073 | 1.46438 ± 0.00073 | 1.47612 ± 0.00075 | 1.48874 ± 0.00075 | 1.50164 ± 0.00076 | 1.51563 ± 0.00075 | 1.53046 ± 0.00076
298.15 K, Wavelength=589.3 nm | 1.42884 ± 0.00072 | 1.43868 ± 0.00072 | 1.44896 ± 0.00074 | 1.45965 ± 0.00074 | 1.47078 ± 0.00075 | 1.48302 ± 0.00074 | 1.4955 ± 0.00075 | 1.50927 ± 0.00074 | 1.52353 ± 0.00076
298.15 K, Wavelength=633.2 nm | 1.42729 ± 0.00072 | 1.43699 ± 0.00072 | 1.44692 ± 0.00074 | 1.45768 ± 0.00073 | 1.4689 ± 0.00072 | 1.4807 ± 0.00073 | 1.4932 ± 0.00074 | 1.50652 ± 0.00074 | 1.52049 ± 0.00075
298.15 K, Wavelength=657.2 nm | 1.42675 ± 0.00072 | 1.43623 ± 0.00075 | 1.44627 ± 0.00072 | 1.45678 ± 0.00074 | 1.46851 ± 0.00073 | 1.47967 ± 0.00073 | 1.49181 ± 0.00075 | 1.50529 ± 0.00077 | 1.5199 ± 0.00075
303.15 K, Wavelength=436.1 nm | 1.43671 ± 0.00072 | 1.44738 ± 0.00075 | 1.45818 ± 0.00075 | 1.4705 ± 0.00076 | 1.48295 ± 0.00077 | 1.49619 ± 0.00077 | 1.50983 ± 0.00076 | 1.52452 ± 0.0008 | 1.54034 ± 0.00077
303.15 K, Wavelength=513.9 nm | 1.43024 ± 0.00072 | 1.44033 ± 0.00074 | 1.45084 ± 0.00074 | 1.46216 ± 0.00073 | 1.47359 ± 0.00076 | 1.48633 ± 0.00075 | 1.49917 ± 0.00075 | 1.51321 ± 0.00076 | 1.52785 ± 0.00076
303.15 K, Wavelength=589.3 nm | 1.42659 ± 0.00071 | 1.43636 ± 0.00074 | 1.44635 ± 0.00075 | 1.45733 ± 0.00074 | 1.46841 ± 0.00073 | 1.48085 ± 0.00073 | 1.49318 ± 0.00074 | 1.50685 ± 0.00076 | 1.52095 ± 0.00075
303.15 K, Wavelength=633.2 nm | 1.42505 ± 0.00071 | 1.4347 ± 0.00073 | 1.44438 ± 0.00074 | 1.45549 ± 0.00073 | 1.46668 ± 0.00073 | 1.47855 ± 0.00073 | 1.49077 ± 0.00074 | 1.50415 ± 0.00076 | 1.51798 ± 0.00075
303.15 K, Wavelength=657.2 nm | 1.42434 ± 0.00072 | 1.434 ± 0.00073 | 1.44387 ± 0.00076 | 1.45441 ± 0.00075 | 1.46615 ± 0.00074 | 1.47729 ± 0.00074 | 1.48949 ± 0.00075 | 1.50284 ± 0.00077 | 1.51741 ± 0.00074
308.15 K, Wavelength=436.1 nm | 1.43455 ± 0.00073 | 1.44495 ± 0.00073 | 1.45589 ± 0.00075 | 1.46783 ± 0.00078 | 1.4805 ± 0.00075 | 1.49371 ± 0.00077 | 1.50749 ± 0.00076 | 1.52185 ± 0.00078 | 1.538 ± 0.00077
308.15 K, Wavelength=513.9 nm | 1.42811 ± 0.00072 | 1.43794 ± 0.00074 | 1.44864 ± 0.00074 | 1.45985 ± 0.00073 | 1.47118 ± 0.00075 | 1.48392 ± 0.00074 | 1.49684 ± 0.00075 | 1.51075 ± 0.00076 | 1.52559 ± 0.00075
308.15 K, Wavelength=589.3 nm | 1.4245 ± 0.00071 | 1.434 ± 0.00073 | 1.44408 ± 0.00074 | 1.45488 ± 0.00075 | 1.46618 ± 0.00074 | 1.47848 ± 0.00073 | 1.49085 ± 0.00073 | 1.50425 ± 0.00077 | 1.51872 ± 0.00074
308.15 K, Wavelength=633.2 nm | 1.42297 ± 0.00072 | 1.43234 ± 0.00072 | 1.44222 ± 0.00073 | 1.45318 ± 0.00074 | 1.46436 ± 0.00075 | 1.4762 ± 0.00073 | 1.48855 ± 0.00073 | 1.50145 ± 0.00075 | 1.51565 ± 0.00074
308.15 K, Wavelength=657.2 nm | 1.42224 ± 0.00072 | 1.4316 ± 0.00074 | 1.44127 ± 0.00075 | 1.45195 ± 0.00074 | 1.46385 ± 0.00073 | 1.47498 ± 0.00075 | 1.48694 ± 0.00075 | 1.50013 ± 0.00077 | 1.51517 ± 0.00073
313.15 K, Wavelength=436.1 nm | 1.43218 ± 0.00073 | 1.44283 ± 0.00074 | 1.45339 ± 0.00077 | 1.46524 ± 0.00077 | 1.47822 ± 0.00075 | 1.49111 ± 0.00078 | 1.50491 ± 0.00077 | 1.51939 ± 0.00078 | 1.5354 ± 0.00077
313.15 K, Wavelength=513.9 nm | 1.42576 ± 0.00072 | 1.43568 ± 0.00073 | 1.44614 ± 0.00073 | 1.45759 ± 0.00076 | 1.46885 ± 0.00075 | 1.48167 ± 0.00074 | 1.49443 ± 0.00076 | 1.50825 ± 0.00077 | 1.52307 ± 0.00075
313.15 K, Wavelength=589.3 nm | 1.42227 ± 0.00072 | 1.43177 ± 0.00074 | 1.44157 ± 0.00073 | 1.45242 ± 0.00076 | 1.46372 ± 0.00074 | 1.47625 ± 0.00073 | 1.48857 ± 0.00074 | 1.50166 ± 0.00077 | 1.51623 ± 0.00074
313.15 K, Wavelength=633.2 nm | 1.42066 ± 0.00072 | 1.43026 ± 0.00073 | 1.43979 ± 0.00072 | 1.45075 ± 0.00075 | 1.46185 ± 0.00073 | 1.47398 ± 0.00073 | 1.48614 ± 0.00074 | 1.49928 ± 0.00074 | 1.51325 ± 0.00072
313.15 K, Wavelength=657.2 nm | 1.41998 ± 0.0007 | 1.42919 ± 0.00073 | 1.439 ± 0.00071 | 1.44965 ± 0.00074 | 1.46161 ± 0.00073 | 1.47245 ± 0.00075 | 1.48468 ± 0.00074 | 1.49759 ± 0.00076 | 1.51275 ± 0.00074
318.15 K, Wavelength=436.1 nm | 1.43001 ± 0.00072 | 1.44026 ± 0.00075 | 1.45084 ± 0.00071 | 1.46269 ± 0.00072 | 1.47578 ± 0.00077 | 1.48857 ± 0.00073 | 1.50241 ± 0.00075 | 1.51672 ± 0.00071 | 1.5331 ± 0.00075
318.15 K, Wavelength=513.9 nm | 1.42366 ± 0.00062 | 1.43333 ± 0.00065 | 1.44405 ± 0.00066 | 1.45487 ± 0.0007 | 1.46645 ± 0.00063 | 1.47929 ± 0.00067 | 1.49184 ± 0.00064 | 1.50571 ± 0.00065 | 1.52083 ± 0.00059
318.15 K, Wavelength=589.3 nm | 1.42009 ± 0.00069 | 1.42933 ± 0.0007 | 1.43955 ± 0.00067 | 1.44985 ± 0.00069 | 1.46145 ± 0.00067 | 1.47389 ± 0.00072 | 1.48615 ± 0.0007 | 1.49906 ± 0.00068 | 1.51403 ± 0.00067
318.15 K, Wavelength=633.2 nm | 1.41859 ± 0.00068 | 1.42777 ± 0.00073 | 1.43785 ± 0.00068 | 1.44826 ± 0.00073 | 1.45981 ± 0.00068 | 1.47165 ± 0.00073 | 1.48389 ± 0.00073 | 1.49667 ± 0.00073 | 1.51123 ± 0.00066
318.15 K, Wavelength=657.2 nm | 1.41814 ± 0.00068 | 1.42702 ± 0.00067 | 1.43701 ± 0.00068 | 1.44718 ± 0.00067 | 1.45934 ± 0.00079 | 1.47014 ± 0.00068 | 1.48216 ± 0.00072 | 1.49507 ± 0.00066 | 1.51044 ± 0.00073
